Data taken from ChEMBL document CHEMBL2073989, “Immunohistochemical distribution and functional characterization of an organic anion transporting polypeptide 2 (oatp2)” (FEBS Lett, 1999).

Biological target: T1, Solute carrier organic anion transporter family member 1A4 (Rattus norvegicus, UniProt O35913)
T1 sequence (O35913 whole entry): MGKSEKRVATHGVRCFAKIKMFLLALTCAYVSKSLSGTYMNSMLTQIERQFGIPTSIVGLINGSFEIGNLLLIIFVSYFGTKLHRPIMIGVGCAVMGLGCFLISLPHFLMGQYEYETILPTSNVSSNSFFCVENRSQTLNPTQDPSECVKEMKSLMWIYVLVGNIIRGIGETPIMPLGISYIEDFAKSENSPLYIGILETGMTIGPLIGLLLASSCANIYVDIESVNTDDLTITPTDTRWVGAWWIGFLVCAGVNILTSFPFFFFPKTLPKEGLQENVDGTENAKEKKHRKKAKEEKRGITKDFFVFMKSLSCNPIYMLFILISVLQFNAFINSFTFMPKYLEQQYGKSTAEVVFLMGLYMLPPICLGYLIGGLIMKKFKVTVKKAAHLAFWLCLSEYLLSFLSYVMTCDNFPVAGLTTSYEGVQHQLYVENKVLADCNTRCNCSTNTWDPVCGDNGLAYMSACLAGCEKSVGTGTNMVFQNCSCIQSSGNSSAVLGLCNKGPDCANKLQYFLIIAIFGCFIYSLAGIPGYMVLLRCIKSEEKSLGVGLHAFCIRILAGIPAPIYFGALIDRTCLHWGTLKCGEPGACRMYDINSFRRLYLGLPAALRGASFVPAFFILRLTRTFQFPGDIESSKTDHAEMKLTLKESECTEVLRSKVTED
Test: TP_TRANSPORTER: uptake in Xenopus laevis oocytes
Format: functional, cell-based
Details: oocyte

Q: With `O=C(O)CCCC[C@@H]1SC[C@@H]2NC(=O)N[C@@H]21` [BIOTIN] as the compound, how does the Activity read?
A: substrate [+]
